Experimental data taken from ChEMBL document CHEMBL5096234, “Discovery, Optimization, and Evaluation of Selective CDK4/6 Inhibitors for the Treatment of Breast Cancer” (J Med Chem, 2022).
One block for each molecule: values may come before it.

Tests used:
CDK6/cyclin D1 = CDK6/cyclin D1 (Homo sapiens, UniProt Q00534); test: Inhibition of CDK6/cyclin-D1 (unknown origin) in presence of ATP by time resolved-FRET assay; type: protein-complex assay
CDK7/Cyclin H/MNAT1 = CDK7/Cyclin H/MNAT1 (Homo sapiens, UniProt P50613); test: Inhibition of CDK7/cyclin H/MAT1 (unknown origin) in presence of ATP by time resolved-FRET assay; type: protein-complex assay
CDK9/cyclin T1 = CDK9/cyclin T1 (Homo sapiens, UniProt P50750); test: Inhibition of CDK9/Cyclin T1 (unknown origin) in presence of ATP by time resolved-FRET assay; type: protein-complex assay
MCF7 [1] = test: Antiproliferative activity against human MCF7 cells assessed as cell growth inhibition incubated for 72 hrs by CCK-8 assay; type: functional
CDK2/Cyclin A2 = CDK2/Cyclin A2 (Homo sapiens, UniProt P24941); test: Inhibition of CDK2/Cyclin A (unknown origin) in presence of ATP by time resolved-FRET assay; type: protein-complex assay
CDK4/Cyclin D3 = CDK4/Cyclin D3 (Homo sapiens, UniProt P11802); test: Inhibition of CDK4/cyclin-D3 (unknown origin) in presence of ATP by time resolved-FRET assay; type: protein-complex assay
[2] = Inhibition of CDK1/cyclin B (unknown origin) in presence of ATP by time resolved-FRET assay; design: species or system Homo sapiens
MCF-10A = test: Antiproliferative activity against human MCF-10A cells assessed as cell growth inhibition incubated for 72 hrs by CCK-8 assay; type: functional
T47D [3] = test: Induction of cell cycle arrest in human T47D cells assessed as accumulation of cells at G2 phase at 1.5 uM incubated for 24 hrs by propidium iodide staining based flow cytometry analysis (reference value: 16.57%); type: functional
MCF7 [4] = test: Induction of cell cycle arrest in human MCF7 cells assessed as accumulation of cells at G2 phase at 1.5 uM incubated for 24 hrs by propidium iodide staining based flow cytometry analysis (reference value: 29.66%); type: functional
T47D [5] = test: Induction of cell cycle arrest in human T47D cells assessed as accumulation of cells at G1 phase at 1.5 uM incubated for 24 hrs by propidium iodide staining based flow cytometry analysis (reference value: 69.55 %); type: functional
MCF7 [6] = test: Induction of cell cycle arrest in human MCF7 cells assessed as accumulation of cells at G1 phase at 1.5 uM incubated for 24 hrs by propidium iodide staining based flow cytometry analysis (reference value: 57.38%); type: functional
T47D [7] = test: Antiproliferative activity against human T47D cells assessed as cell growth inhibition incubated for 72 hrs by CCK-8 assay; type: functional
MCF7 [8] = test: Induction of cell cycle arrest in human MCF7 cells assessed as accumulation of cells at G1 phase at 2.5 uM incubated for 24 hrs by propidium iodide staining based flow cytometry analysis (reference value: 57.38%); type: functional
ZR-75-1 = test: Antiproliferative activity against human ZR-75-1 cells assessed as cell growth inhibition incubated for 72 hrs by CCK-8 assay; type: functional
MCF7 [9] = test: Induction of cell cycle arrest in human MCF7 cells assessed as accumulation of cells at G2 phase at 2.5 uM incubated for 24 hrs by propidium iodide staining based flow cytometry analysis (reference value: 29.66%); type: functional

CDK9/cyclin T1, sequence (O60563 whole entry): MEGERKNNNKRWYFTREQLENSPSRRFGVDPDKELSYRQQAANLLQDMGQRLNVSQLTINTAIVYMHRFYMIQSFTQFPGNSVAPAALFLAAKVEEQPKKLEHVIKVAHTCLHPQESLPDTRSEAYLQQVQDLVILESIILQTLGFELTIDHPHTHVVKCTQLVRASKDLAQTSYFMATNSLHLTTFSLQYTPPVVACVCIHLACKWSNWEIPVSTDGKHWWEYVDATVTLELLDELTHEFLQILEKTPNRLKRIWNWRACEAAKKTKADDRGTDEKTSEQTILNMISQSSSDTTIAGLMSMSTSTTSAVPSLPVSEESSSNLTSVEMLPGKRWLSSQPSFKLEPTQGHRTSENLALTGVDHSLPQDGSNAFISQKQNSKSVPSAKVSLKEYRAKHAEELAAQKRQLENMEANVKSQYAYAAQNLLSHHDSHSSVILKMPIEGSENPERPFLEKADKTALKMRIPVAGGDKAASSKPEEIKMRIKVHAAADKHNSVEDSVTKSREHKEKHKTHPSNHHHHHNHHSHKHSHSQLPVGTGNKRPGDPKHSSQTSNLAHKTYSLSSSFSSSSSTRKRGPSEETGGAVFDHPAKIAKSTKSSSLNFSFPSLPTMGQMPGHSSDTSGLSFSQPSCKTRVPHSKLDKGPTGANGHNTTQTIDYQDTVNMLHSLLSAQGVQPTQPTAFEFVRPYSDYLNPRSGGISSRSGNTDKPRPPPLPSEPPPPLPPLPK
CDK9/cyclin T1, sequence (P50750 whole entry): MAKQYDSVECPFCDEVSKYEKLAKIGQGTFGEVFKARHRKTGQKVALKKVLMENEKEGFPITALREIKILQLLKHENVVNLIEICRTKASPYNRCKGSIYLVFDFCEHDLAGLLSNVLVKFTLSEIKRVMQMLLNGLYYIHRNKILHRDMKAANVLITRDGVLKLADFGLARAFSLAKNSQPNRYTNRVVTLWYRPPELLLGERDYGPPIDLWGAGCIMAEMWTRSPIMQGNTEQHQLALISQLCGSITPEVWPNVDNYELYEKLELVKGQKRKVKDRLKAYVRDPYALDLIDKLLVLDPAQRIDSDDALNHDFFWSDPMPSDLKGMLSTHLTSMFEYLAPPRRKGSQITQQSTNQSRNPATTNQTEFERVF
CDK7/Cyclin H/MNAT1, sequence (P51946 whole entry): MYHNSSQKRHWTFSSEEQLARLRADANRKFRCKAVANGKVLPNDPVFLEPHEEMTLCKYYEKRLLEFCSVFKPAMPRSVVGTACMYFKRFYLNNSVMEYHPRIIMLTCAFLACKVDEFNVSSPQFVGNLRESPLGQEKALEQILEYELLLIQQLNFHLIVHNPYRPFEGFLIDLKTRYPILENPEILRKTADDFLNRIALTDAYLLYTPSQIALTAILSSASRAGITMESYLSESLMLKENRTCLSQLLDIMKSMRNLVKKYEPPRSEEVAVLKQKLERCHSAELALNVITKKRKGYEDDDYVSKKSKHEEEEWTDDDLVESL
CDK7/Cyclin H/MNAT1, sequence (P50613 whole entry): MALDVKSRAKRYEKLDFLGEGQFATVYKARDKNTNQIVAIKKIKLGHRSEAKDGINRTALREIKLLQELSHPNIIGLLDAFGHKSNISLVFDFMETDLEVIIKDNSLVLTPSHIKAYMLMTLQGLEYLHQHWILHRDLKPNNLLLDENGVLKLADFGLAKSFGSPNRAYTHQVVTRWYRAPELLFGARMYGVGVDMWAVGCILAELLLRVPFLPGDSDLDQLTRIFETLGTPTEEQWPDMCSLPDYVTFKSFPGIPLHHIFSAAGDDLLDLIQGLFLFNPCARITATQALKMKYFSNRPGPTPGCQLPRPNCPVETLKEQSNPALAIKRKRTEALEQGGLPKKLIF
CDK7/Cyclin H/MNAT1, sequence (P51948 whole entry, further chain): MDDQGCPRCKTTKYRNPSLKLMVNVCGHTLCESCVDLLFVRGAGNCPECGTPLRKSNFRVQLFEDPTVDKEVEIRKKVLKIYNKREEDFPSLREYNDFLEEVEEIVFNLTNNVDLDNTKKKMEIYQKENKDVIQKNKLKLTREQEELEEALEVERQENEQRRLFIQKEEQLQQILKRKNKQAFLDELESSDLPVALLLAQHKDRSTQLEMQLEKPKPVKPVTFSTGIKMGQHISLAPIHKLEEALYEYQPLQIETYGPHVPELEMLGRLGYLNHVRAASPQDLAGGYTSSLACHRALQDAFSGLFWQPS
CDK4/Cyclin D3, sequence (P11802 whole entry): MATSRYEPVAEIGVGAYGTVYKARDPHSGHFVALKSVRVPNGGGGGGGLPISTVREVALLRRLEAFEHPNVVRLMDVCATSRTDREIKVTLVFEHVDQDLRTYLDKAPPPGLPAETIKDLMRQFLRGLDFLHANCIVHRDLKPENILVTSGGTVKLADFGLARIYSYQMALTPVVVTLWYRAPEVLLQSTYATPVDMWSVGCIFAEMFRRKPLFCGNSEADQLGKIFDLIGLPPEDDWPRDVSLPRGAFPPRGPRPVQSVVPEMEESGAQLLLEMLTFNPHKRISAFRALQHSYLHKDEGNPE
CDK4/Cyclin D3, sequence (P30281 whole entry, further chain): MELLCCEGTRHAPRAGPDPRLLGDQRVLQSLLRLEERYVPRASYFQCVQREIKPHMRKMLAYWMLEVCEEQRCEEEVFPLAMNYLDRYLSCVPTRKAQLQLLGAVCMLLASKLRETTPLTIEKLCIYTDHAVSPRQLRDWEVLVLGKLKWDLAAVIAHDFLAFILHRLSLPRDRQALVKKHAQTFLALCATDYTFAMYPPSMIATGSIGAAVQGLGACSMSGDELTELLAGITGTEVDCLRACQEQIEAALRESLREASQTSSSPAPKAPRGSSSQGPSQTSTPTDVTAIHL
CDK6/cyclin D1, sequence (P24385 whole entry): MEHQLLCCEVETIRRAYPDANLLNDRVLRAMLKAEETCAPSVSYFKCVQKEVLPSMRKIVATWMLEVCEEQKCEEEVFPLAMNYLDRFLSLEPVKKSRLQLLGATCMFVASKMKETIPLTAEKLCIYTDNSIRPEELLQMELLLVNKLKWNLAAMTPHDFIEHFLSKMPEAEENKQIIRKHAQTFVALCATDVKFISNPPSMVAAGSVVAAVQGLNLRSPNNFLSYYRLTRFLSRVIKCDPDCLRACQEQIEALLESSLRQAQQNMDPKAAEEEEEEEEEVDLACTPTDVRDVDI
CDK6/cyclin D1, sequence (Q00534 whole entry): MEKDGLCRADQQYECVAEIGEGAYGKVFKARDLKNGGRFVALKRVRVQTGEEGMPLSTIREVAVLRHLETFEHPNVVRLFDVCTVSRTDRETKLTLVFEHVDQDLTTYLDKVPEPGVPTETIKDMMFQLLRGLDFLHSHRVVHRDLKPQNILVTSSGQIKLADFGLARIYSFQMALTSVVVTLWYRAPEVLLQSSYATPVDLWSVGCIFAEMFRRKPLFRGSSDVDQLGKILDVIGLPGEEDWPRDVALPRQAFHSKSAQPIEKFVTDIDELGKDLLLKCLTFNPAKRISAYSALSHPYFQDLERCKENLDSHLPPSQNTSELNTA

IC50 (CDK6/cyclin D1): 0.12 µM
SMILES: Fc1cnc(Nc2ccc(N3CCNCC3)cn2)nc1-c1ccc2c(c1)OCO2

IC50 (CDK6/cyclin D1): 0.296 µM
SMILES: CC(C)N1CCN(C(=O)c2ccc(Nc3ncc(F)c(-c4ccc5c(c4)OCO5)n3)nc2)CC1

IC50 (CDK7/Cyclin H/MNAT1): > 10 µM
IC50 (CDK9/cyclin T1): 1.04 µM
GI50 (MCF7 [1]): 2.97 µM
IC50 (CDK6/cyclin D1): 0.032 µM
IC50 (CDK2/Cyclin A2): 0.676 µM
IC50 (CDK4/Cyclin D3): 0.003 µM
IC50 [2]: 1.21 µM
SMILES: CN1CCc2cc(-c3nc(Nc4ccc(N5CCNCC5)cn4)ncc3F)ccc2C1=O

IC50 (CDK6/cyclin D1): > 1 µM
SMILES: CC(C)N1CCN(C(=O)c2ccc(Nc3ncc(F)c(-c4ccc5c(c4)CCC(=O)N5C(C)C)n3)nc2)CC1

IC50 (CDK7/Cyclin H/MNAT1): 8.24 µM
IC50 (CDK9/cyclin T1): 0.382 µM
GI50 (MCF7 [1]): 2.9 µM
IC50 (CDK6/cyclin D1): 0.036 µM
IC50 (CDK2/Cyclin A2): 0.175 µM
IC50 (CDK4/Cyclin D3): 0.008 µM
IC50 [2]: 0.148 µM
SMILES: O=C1NCCc2cc(-c3nc(Nc4ccc(N5CCNCC5)cn4)ncc3F)ccc21

GI50 (MCF7 [1]): 3.24 µM
IC50 (CDK6/cyclin D1): 0.06 µM
IC50 (CDK4/Cyclin D3): 0.021 µM
SMILES: CCN1CCN(C(=O)c2ccc(Nc3ncc(F)c(-c4ccc5c(c4)CCNC5=O)n3)nc2)CC1

IC50 (CDK6/cyclin D1): > 10 µM
SMILES: CC(C)(C)OC(=O)N1CCN(C(=O)c2ccc(Nc3ncc(F)c(-c4ccc5c(c4)OCCO5)n3)nc2)CC1

GI50 (MCF7 [1]): 0.832 µM
GI50 (T47D [7]): 0.771 µM
SMILES: CCN1CCN(Cc2ccc(Nc3ncc(F)c(-c4cc(F)c5nc(C)n(C(C)C)c5c4)n3)nc2)CC1 [ABEMACICLIB]
GI50 (MCF-10A): 5.09 µM
Activity (T47D [3]): 9.32%
Activity (MCF7 [4]): 17.65%
Activity (T47D [5]): 81.8%
Activity (MCF7 [6]): 77.44%

IC50 (CDK6/cyclin D1): > 10 µM
SMILES: CC(C)(C)OC(=O)N1CCN(c2ccc(Nc3ncc(F)c(-c4ccc5c(c4)OCCO5)n3)nc2)CC1

IC50 (CDK6/cyclin D1): 0.105 µM
SMILES: CC(C)N1CCN(C(=O)c2ccc(Nc3ncc(F)c(-c4ccc5c(c4)OCCO5)n3)nc2)CC1

IC50 (CDK6/cyclin D1): 0.254 µM
SMILES: CCN1CCN(Cc2ccc(Nc3ncc(F)c(-c4ccc5c(c4)OCO5)n3)nc2)CC1

IC50 (CDK6/cyclin D1): 0.317 µM
SMILES: CCN1CCN(C(=O)c2ccc(Nc3ncc(F)c(-c4ccc5c(c4)CCN(C(C)C)C5=O)n3)nc2)CC1

GI50 (MCF7 [1]): 3.77 µM
IC50 (CDK6/cyclin D1): 0.081 µM
IC50 (CDK4/Cyclin D3): 0.036 µM
SMILES: Fc1cnc(Nc2ccc(N3CCNCC3)cn2)nc1-c1ccc2c(c1)OCCO2

IC50 (CDK6/cyclin D1): 0.64 µM
SMILES: CC(C)N1CCN(Cc2ccc(Nc3ncc(F)c(-c4ccc5c(c4)CCN(C(C)C)C5=O)n3)nc2)CC1

GI50 (MCF7 [1]): 3.94 µM
GI50 (T47D [7]): 1.06 µM
SMILES: CC(=O)c1c(C)c2cnc(Nc3ccc(N4CCNCC4)cn3)nc2n(C2CCCC2)c1=O [PALBOCICLIB]
GI50 (MCF-10A): 19.1 µM
Activity (T47D [3]): 6.13%
Activity (MCF7 [8]): 81.49%
Activity (T47D [5]): 84.74%
GI50 (ZR-75-1): 2.28 µM
Activity (MCF7 [9]): 14.51%

IC50 (CDK6/cyclin D1): > 10 µM
SMILES: CC(C)(C)OC(=O)N1CCN(c2ccc(Nc3ncc(F)c(-c4ccc5c(c4)OCO5)n3)nc2)CC1

GI50 (MCF7 [1]): 4.71 µM
IC50 (CDK6/cyclin D1): 0.097 µM
IC50 (CDK4/Cyclin D3): 0.08 µM
SMILES: CCN1CCN(Cc2ccc(Nc3ncc(F)c(-c4ccc5c(c4)OCCO5)n3)nc2)CC1

IC50 (CDK6/cyclin D1): 0.66 µM
SMILES: CN1CCN(c2ccc(Nc3ncc(F)c(-c4ccc5c(c4)OCCO5)n3)nc2)CC1

IC50 (CDK6/cyclin D1): > 10 µM
SMILES: CC(C)(C)OC(=O)N1CCN(Cc2ccc(Nc3ncc(F)c(-c4ccc5c(c4)OCCO5)n3)nc2)CC1

IC50 (CDK6/cyclin D1): 0.117 µM
SMILES: O=C(c1ccc(Nc2ncc(F)c(-c3ccc4c(c3)OCCO4)n2)nc1)N1CCNCC1

IC50 (CDK6/cyclin D1): > 1 µM
SMILES: CC(C)N1CCN(Cc2ccc(Nc3ncc(F)c(-c4ccc5c(c4)CCC(=O)N5C(C)C)n3)nc2)CC1

IC50 (CDK6/cyclin D1): 1.14 µM
SMILES: CN1CCN(c2ccc(Nc3ncc(F)c(-c4ccc5c(c4)OCO5)n3)nc2)CC1

IC50 (CDK7/Cyclin H/MNAT1): 8.72 µM
IC50 (CDK9/cyclin T1): 1.96 µM
GI50 (MCF7 [1]): 3.07 µM
IC50 (CDK6/cyclin D1): 0.042 µM
IC50 (CDK2/Cyclin A2): 0.495 µM
IC50 (CDK4/Cyclin D3): 0.014 µM
IC50 [2]: 6.96 µM
SMILES: CC(C)N1CCc2cc(-c3nc(Nc4ccc(N5CCNCC5)cn4)ncc3F)ccc2C1=O

IC50 (CDK6/cyclin D1): 0.136 µM
SMILES: Fc1cnc(Nc2ccc(CN3CCNCC3)cn2)nc1-c1ccc2c(c1)OCCO2

IC50 (CDK6/cyclin D1): 0.336 µM
SMILES: CCN1CCN(C(=O)c2ccc(Nc3ncc(F)c(-c4ccc5c(c4)OCCC5=O)n3)nc2)CC1

IC50 (CDK6/cyclin D1): 0.333 µM
SMILES: CCN1CCN(C(=O)c2ccc(Nc3ncc(F)c(-c4ccc5c(c4)OCO5)n3)nc2)CC1

IC50 (CDK6/cyclin D1): 0.138 µM
SMILES: CC(C)N1CCN(Cc2ccc(Nc3ncc(F)c(-c4ccc5c(c4)OCCO5)n3)nc2)CC1

IC50 (CDK6/cyclin D1): 0.112 µM
SMILES: CCN1CCN(C(=O)c2ccc(Nc3ncc(F)c(-c4ccc5c(c4)OCCO5)n3)nc2)CC1

IC50 (CDK6/cyclin D1): 3.72 µM
SMILES: CCN1CCN(C(=O)c2ccc(Nc3ncc(F)c(-c4ccc5c(c4)CCC(=O)N5C(C)C)n3)nc2)CC1

IC50 (CDK6/cyclin D1): 0.364 µM
SMILES: CC(C)N1CCN(C(=O)c2ccc(Nc3ncc(F)c(-c4ccc5c(c4)OCCC5=O)n3)nc2)CC1
